The values below come from US11174251B2, “Compositions and methods for inhibition of the JAK pathway” (Rigel Pharmaceuticals, Inc., priority 2010, dated 2021).

Where a name gives a salt, the structure may show the parent alone.

In this experiment the target is T1, JAK3 (Homo sapiens, UniProt P52333).
T1 construct: The Ramos B-cell line was acquired from ATCC (ATCC Catalog No. CRL-1596); host or cells: Ramos B-cell line (human)
T1 sequence (P52333 1-1124): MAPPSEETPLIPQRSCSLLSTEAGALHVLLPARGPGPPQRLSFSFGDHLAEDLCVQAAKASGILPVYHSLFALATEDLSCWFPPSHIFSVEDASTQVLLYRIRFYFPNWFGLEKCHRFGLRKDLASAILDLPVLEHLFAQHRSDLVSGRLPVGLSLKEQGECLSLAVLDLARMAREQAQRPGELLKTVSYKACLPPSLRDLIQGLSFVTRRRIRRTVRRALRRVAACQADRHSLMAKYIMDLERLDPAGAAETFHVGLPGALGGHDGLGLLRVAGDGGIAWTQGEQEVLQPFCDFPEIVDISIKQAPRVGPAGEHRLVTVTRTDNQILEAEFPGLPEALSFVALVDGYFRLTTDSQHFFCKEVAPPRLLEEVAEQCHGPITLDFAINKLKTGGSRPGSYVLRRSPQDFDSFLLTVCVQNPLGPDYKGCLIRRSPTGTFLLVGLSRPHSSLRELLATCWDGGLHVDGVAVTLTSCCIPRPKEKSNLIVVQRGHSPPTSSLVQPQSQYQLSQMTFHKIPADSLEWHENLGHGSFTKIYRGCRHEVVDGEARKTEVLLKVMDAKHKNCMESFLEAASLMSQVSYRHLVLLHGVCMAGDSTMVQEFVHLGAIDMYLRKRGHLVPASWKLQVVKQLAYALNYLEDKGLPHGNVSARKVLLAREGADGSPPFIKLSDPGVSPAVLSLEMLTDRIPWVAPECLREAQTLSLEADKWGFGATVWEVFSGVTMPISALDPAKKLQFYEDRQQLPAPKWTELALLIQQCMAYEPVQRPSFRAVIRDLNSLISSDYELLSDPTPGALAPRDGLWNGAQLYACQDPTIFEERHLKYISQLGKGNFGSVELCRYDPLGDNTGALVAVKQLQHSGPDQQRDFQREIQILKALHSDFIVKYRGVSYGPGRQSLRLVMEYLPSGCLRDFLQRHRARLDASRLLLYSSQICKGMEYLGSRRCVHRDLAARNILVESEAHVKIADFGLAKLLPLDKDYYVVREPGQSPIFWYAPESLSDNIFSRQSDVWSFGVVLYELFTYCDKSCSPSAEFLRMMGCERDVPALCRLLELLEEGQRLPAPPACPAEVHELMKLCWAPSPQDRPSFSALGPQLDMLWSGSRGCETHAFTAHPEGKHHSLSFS
As to the kind of experiment: Assay for CD23 expression on Ramos B-cells stimulated by IL-4 (Table IV: ability to inhibit JAK3 activity). It counts as cell-based. The following applies: tested under conditions described in Example 3 (so in the source). The method, boiled down:
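IL-4-induced CD23 surface expression on human Ramos B cells, detected by flow cytometry after 20–24 h stimulation (IL-4 final 50 units/mL). Compound or DMSO added 1 h beforehand at 37 °C; cells kept in RPMI with 5% serum.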

For `NC(=O)c1cccc(Nc2nccc(Nc3ccc4oc(=O)[nH]c4c3)n2)c1` [Compound I-3, 3-(4-(2-oxo-2,3-dihydrobenzo[d]oxazol-5-ylamino)pyrimidin-2-ylamino)benzamide trifluoroacetate salt], the IC50 lay in the range of 0.5 to 5 µM.

On to `Cc1cnc(Nc2cc(C)c3c(c2)C(=O)OC3)nc1Nc1ccc2oc(=O)[nH]c2c1` [II-13, 5-methyl-N4-(2-oxo-2,3-dihydro-1,3-benzoxazol-5-yl)-N2-(1-oxo-1,3-dihydro-4-methylisobenzofuran-6-yl)-2,4-pyrimidinediamine], for which the IC50 was less than 0.5 µM.

`Cc1cnc(Nc2cc(C)c(C)c(C)c2)nc1Nc1cc(CN2CCN(C(=O)OC(C)(C)C)CC2)c2oc(=O)[nH]c2c1` [Compound I-94, tert-butyl 4-((5-(2-(3,4,5-trimethylphenylamino)-5-methylpyrimidin-4-ylamino)-2,3-dihydro-2-oxobenzo[d]oxazol-7-yl)methyl)piperazine-1-carboxylate] came in with an IC50 of 5 to 10 µM.

Turning to `O=c1[nH]c2cc(Nc3ccnc(Nc4cc(F)cc(F)c4)n3)ccc2o1` [Compound I-13, 5-(2-(3,5-difluorophenylamino)pyrimidin-4-ylamino)benzo[d]oxazol-2(3H)-one trifluoroacetate salt], the IC50 was 0.5 to 5 µM.

`O=c1[nH]c2cc(Nc3nc(Nc4cc(F)cc(F)c4)ncc3Cl)ccc2o1` [Compound I-14, 5-(5-chloro-2-(3,5-difluorophenylamino)pyrimidin-4-ylamino)benzo[d]oxazol-2(3H)-one trifluoroacetate salt] returned a 50% inhibitory concentration (IC50) of less than 0.5 µM.

`COc1cc(Nc2ncc(F)c(Nc3ccc4oc(=O)[nH]c4c3)n2)ccc1C(=O)NC1CCC1` [Compound I-164, N-cyclobutyl-4-(5-fluoro-4-(2-oxo-2,3-dihydrobenzo[d]oxazol-5-ylamino)pyrimidin-2-ylamino)-2-methoxybenzamide formate salt]: the IC50 was less than 0.5 µM.

The compound `CCN(CC)c1cc(Nc2ncc(Cl)c(Nc3ccc4oc(=O)[nH]c4c3)n2)cc(C)c1C` [Compound I-86, 5-(5-chloro-2-(3-(diethylamino)-4,5-dimethylphenylamino)pyrimidin-4-ylamino)benzo[d]oxazol-2(3H)-one formate salt] returned an IC50 of less than 0.5 µM.

For the compound `Cc1ccc(Nc2ncc(F)c(Nc3ccc4oc(=O)[nH]c4c3)n2)cc1-c1ccncc1` [Compound I-203, 5-(2-(4-methyl-3-(pyridin-4-yl)phenylamino)-5-fluoropyrimidin-4-ylamino)benzo[d]oxazol-2(3H)-one], the half-inhibitory concentration (IC50) was less than 0.5 µM.

The compound `COc1cc(Nc2ncc(C)c(Nc3ccc4oc(=O)[nH]c4c3)n2)cc(C)c1F` [Compound I-105, 5-(2-(4-fluoro-3-methoxy-5-methylphenylamino)-5-methylpyrimidin-4-ylamino)benzo[d]oxazol-2(3H)-one] gave an IC50 of less than 0.5 µM.

Regarding `COC(=O)c1cc(Nc2ncc(C)c(Nc3ccc4oc(=O)[nH]c4c3)n2)cc(C)c1C` [Compound I-144, N2-(3,4-dimethyl-5-methoxycarbonyl)phenyl-5-methyl-N4-(2-oxo-2,3-dihydro-1,3-benzoxazol-5-yl)-2,4-pyrimidinediamine], the IC50 was less than 0.5 µM.

Compound `CCOc1ccc(Nc2ncc(C)c(Nc3ccc4oc(=O)[nH]c4c3)n2)c(F)c1OCC` [Compound I-101, 5-(2-(3,4-diethoxy-2-fluorophenylamino)-5-methylpyrimidin-4-ylamino)benzo[d]oxazol-2(3H)-one] gave an IC50 of less than 0.5 µM.

`COc1ccc(Nc2ncc(F)c(Nc3ccc4oc(=O)[nH]c4c3)n2)cc1-c1cccnc1` [Compound I-209, 5-(2-(4-methoxy-3-(pyridin-3-yl)phenylamino)-5-fluoropyrimidin-4-ylamino)benzo[d]oxazol-2(3H)-one formate salt]: the IC50 was less than 0.5 µM.

`CC(C)NC(=O)c1ccc(Nc2ncc(F)c(Nc3ccc4oc(=O)[nH]c4c3)n2)cc1` [Compound I-163, 4-(5-fluoro-4-(2-oxo-2,3-dihydrobenzo[d]oxazol-5-ylamino)pyrimidin-2-ylamino)-N-isopropylbenzamide formate salt] displayed a concentration for half-maximal inhibition (IC50) of less than 0.5 µM.
